Experiments:
P2Y12 receptor (P2Y12R) [1] = target: T1, P2Y12 receptor (P2Y12R) (Homo sapiens, UniProt Q9H244); assay: inhibition of forskolin-induced cAMP formation; type: cell-based
P2Y12 receptor (P2Y12R) [2] = target: T1, P2Y12 receptor (P2Y12R); assay: cAMP accumulation assay, rightward shift of 2-methylthio-ADP curve; type: cell-based

T1 sequence (Q9H244 whole entry): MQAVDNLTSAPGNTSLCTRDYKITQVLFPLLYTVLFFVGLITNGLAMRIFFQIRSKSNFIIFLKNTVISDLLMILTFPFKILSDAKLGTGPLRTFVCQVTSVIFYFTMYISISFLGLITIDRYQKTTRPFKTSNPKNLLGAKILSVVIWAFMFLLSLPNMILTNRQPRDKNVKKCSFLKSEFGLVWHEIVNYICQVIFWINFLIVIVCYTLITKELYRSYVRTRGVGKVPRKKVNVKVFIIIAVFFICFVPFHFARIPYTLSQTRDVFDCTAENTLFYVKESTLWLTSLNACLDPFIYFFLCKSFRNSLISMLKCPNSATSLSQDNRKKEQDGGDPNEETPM

Row | EC50 (P2Y12 receptor (P2Y12R) [1]) [nM] | Kb (P2Y12 receptor (P2Y12R) [2]) [nM] | Compound
1 | 0.26 | – | CSc1nc(N)c2ncn([C@@H]3O[C@H](COP(=O)(O)OP(=O)(O)O)[C@@H](O)[C@H]3O)c2n1 [2-methylthio-ADP]
2 | – | 0.0794 | Nc1c(S(=O)(=O)O)cc(Nc2ccc(Nc3ccccc3)c(S(=O)(=O)O)c2)c2c1C(=O)c1ccccc1C2=O [PSB-0739]

From paper PMC4148180 (Neurobiology of Disease, 2014)
